Measured values taken from patent publication US9005608B2, “Stabilized solubility-enhanced formulations for oral delivery” (Adds Pharmaceuticals LLC, priority 2009, dated 2015).
In brackets after ≈: the same amount, converted by molar mass.

Tests used:
[1] = CoQ10 solubility at 37° C. in water and in placebo AQUA Q10 formulation; type: physicochemical
Experimental: CoQ10 solubility was measured at 37° C. in water as well as in a placebo AQUA Q10 formulation, i.e., Incromega™ E3322, Capmul™ CMC C-8, and Cremophor™ EL at weight ratio of 40/25/20.

[2] = CoQ10 solubility/concentration in non-aqueous formulations at elevated temperature; type: physicochemical; details: for solubility: organic solvent or mixture
From the text: While not intending to be bound to any theory, we posit that when a poorly water-soluble agent is incorporated into a porous carrier with narrow pores, it experiences strong geometric restrictions and large interfacial interactions with the porous matrix. […] Thus, absorbing a previously solubilized CoQ10 liquid formulation, for example, into the narrow pore channels of Fujicalin® (calcium hydrogen phosphate) inhibits re-crystallization and aggregation of CoQ10. This enables, to a large extent, even dispersion and distribution of pharmaceutically active forms of CoQ10 in solubilized form. After the Fujicalin® porous particulates dissolve in acidic gastric fluid, the SSS is released and the trapped SEF self-emulsifies in the fluid to form droplets of sufficiently small size, thereby facilitating absorption of CoQ10 cross the epithelial cells. Other porous particulates include silicon dioxide and magnesium aluminum metasilicate. Combinations may also be used.
CoQ10 in a concentration of >100 mg/ml in a non-aqueous formulation, preferably SEF, at a temperature above 25° C., preferably at or above 48° C. has been achieved.
The invention formulations solubilize CoQ10 at a concentration of >100 mg/ml at a temperature between 30° C. and 60° C., preferably not above 50° C. In addition, the nutrient/vitamin components readily dissolve in aqueous media, so that >75% of these components are released within an hour.

COC1=C(OC)C(=O)C(C/C=C(\C)CC/C=C(\C)CC/C=C(\C)CC/C=C(\C)CC/C=C(\C)CC/C=C(\C)CC/C=C(\C)CC/C=C(\C)CC/C=C(\C)CCC=C(C)C)=C(C)C1=O [CoQ10, Coenzyme Q10]
CoQ10 solubility in AQUA Q10 formulation relative to solubility in water [1]: over 400,000 times | solubility ([1]; placebo AQUA Q10 formulation, oil or lipid, placebo Incromega E3322/Capmul CMC C-8/Cremophor EL 40/25/20, read-out: CoQ10 solubility in AQUA Q10 formulation): 177 mg/mL (≈ 205 mM) | solubility ([1]; water, read-out: CoQ10 solubility in water): 0.0004 mg/mL (≈ 0.000463 mM) | solubility ([2]; invention formulations, temperature between 30° C. and 60° C., preferably not above 50° C., read-out: CoQ10 concentration solubilized by the invention formulations): > 100 mg/mL | solubility ([2]; non-aqueous formulations, elevated temperature close to its melting temperature (48° C.), read-out: solubility of CoQ10 in non-aqueous formulations): > 100 mg/mL | CoQ10 concentration in a non-aqueous formulation ([2]; preferably SEF, temperature above 25° C., preferably at or above 48° C.): > 100 mg/mL
